Data reported in ChEMBL document CHEMBL5260815, “Profiling of in vitro activities of urea-based inhibitors against cysteine synthases from Mycobacterium tuberculosis” (Bioorg Med Chem Lett, 2017).

Tests used:
[1] = biological target: T1, O-acetylserine sulfhydrylase (Mycobacterium tuberculosis, UniProt P9WP55); assay: Inhibition of hexahistidine-tagged recombinant Mycobacterium tuberculosis CysK1 expressed in Escherichia coli BL21(DE3) assessed as dissociation constant using PLP as substrate incubated for 5 mins by fluorescence analysis
S-sulfocysteine synthase [2] = biological target: T2, S-sulfocysteine synthase (Mycobacterium tuberculosis (strain ATCC 25618 / H37Rv), UniProt Q79FV4); assay: Inhibition of hexahistidine-tagged recombinant Mycobacterium tuberculosis CysK2 expressed in Escherichia coli BL21(DE3) assessed as amount of S-sulfocysteine produced using […] as substrate incubated for 30 mins by acid-ninhydrin based spectrophotometric assay
T2 sequence (Q79FV4 whole entry): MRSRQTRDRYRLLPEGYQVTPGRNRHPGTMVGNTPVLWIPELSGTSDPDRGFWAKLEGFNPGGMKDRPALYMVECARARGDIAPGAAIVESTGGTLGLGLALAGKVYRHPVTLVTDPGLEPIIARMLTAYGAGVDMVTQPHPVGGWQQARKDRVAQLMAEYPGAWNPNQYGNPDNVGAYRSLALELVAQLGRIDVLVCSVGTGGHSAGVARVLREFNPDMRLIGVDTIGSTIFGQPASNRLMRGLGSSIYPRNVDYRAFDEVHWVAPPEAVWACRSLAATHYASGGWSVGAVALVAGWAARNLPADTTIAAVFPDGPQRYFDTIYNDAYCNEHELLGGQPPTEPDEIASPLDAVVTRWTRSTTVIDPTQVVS

[3] = biological target: T1, O-acetylserine sulfhydrylase; assay: Inhibition of hexahistidine-tagged recombinant Mycobacterium tuberculosis CysK1 expressed in Escherichia coli BL21(DE3) assessed as amount of cysteine produced using O-acetyl-L-serine as substrate incubated for 12 mins by acid-ninhydrin based spectrophotometric assay
S-sulfocysteine synthase [4] = biological target: T2, S-sulfocysteine synthase; assay: Inhibition of hexahistidine-tagged recombinant Mycobacterium tuberculosis CysK2 expressed in Escherichia coli BL21(DE3) assessed as dissociation constant using PLP as substrate incubated for 5 mins by fluorescence analysis
S-sulfocysteine synthase [5] = biological target: T2, S-sulfocysteine synthase; assay: Inhibition of hexahistidine-tagged recombinant Mycobacterium tuberculosis CysK2 expressed in Escherichia coli BL21(DE3) assessed as inhibition constant using […] as substrate by Lineweaver-Burk plot analysis
[6] = biological target: O-phosphoserine sulfhydrylase (Mycobacterium tuberculosis (strain ATCC 25618 / H37Rv), UniProt P9WP53); assay: Inhibition of Mycobacterium tuberculosis CysM
O-phosphoserine sulfhydrylase, sequence (P9WP53 whole entry): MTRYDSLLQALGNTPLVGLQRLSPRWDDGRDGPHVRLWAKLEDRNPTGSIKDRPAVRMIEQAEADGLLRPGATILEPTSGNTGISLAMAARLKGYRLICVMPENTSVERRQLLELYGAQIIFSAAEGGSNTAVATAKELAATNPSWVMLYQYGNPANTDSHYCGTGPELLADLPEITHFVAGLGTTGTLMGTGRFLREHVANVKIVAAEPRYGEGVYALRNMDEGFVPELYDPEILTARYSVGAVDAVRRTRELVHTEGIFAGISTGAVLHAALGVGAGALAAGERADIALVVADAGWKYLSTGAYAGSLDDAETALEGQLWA

Row | Compound | Kd [1] [µM] | IC50 (S-sulfocysteine synthase [2]) [µM] | IC50 [3] [µM] | Kd (S-sulfocysteine synthase [4]) [µM] | Ki (S-sulfocysteine synthase [5]) [µM] | IC50 [6] [µM]
1 | O=C(O)c1cccc(NS(=O)(=O)c2cccc(-c3ccc(Cl)c(Cl)c3)c2)c1 | 110 | – | – | – | – | –
2 | O=C(Nc1cccc(-c2ccccc2)c1)Nc1ccc(C(=O)O)c(O)c1 | – | 26.9 | 21.2 | – | – | –
3 | O=C(Nc1ccc(Br)cc1)Nc1cccc(C(=O)O)c1 | – | 27.6 | – | 17.7 | – | –
4 | COc1ccc(OC)c(NC(=O)Nc2ccccc2C(=O)O)c1 | 59.9 | – | – | – | – | –
5 | O=C(Nc1ccc(Br)cc1)Nc1ccc(C(=O)O)c(O)c1 | – | – | 29.4 | – | – | –
6 | O=C(Nc1cccc(-c2ccccc2)c1)Nc1ccc(O)c(C(=O)O)c1 | – | 10.3 | 9.3 | 102 | – | –
7 | O=C(Nc1ccc(Cl)cc1)Nc1cccc(C(=O)O)c1 | – | 13 | – | 16.9 | – | –
8 | Cc1ccc(NC(=O)Nc2cccc(C(=O)O)c2)cc1 | – | – | – | 148 | – | –
9 | O=C(Nc1cccc(C(=O)O)c1)Nc1cccc(-c2ccccc2)c1 | 96.8 | 6.6 | 4.9 | 14.9 | 1.1 | –
10 | O=C(Nc1ccc(Cl)c(Cl)c1)Nc1ccc(O)c(C(=O)O)c1 | 75.7 | 29.9 | 2.5 | – | – | –
11 | O=C(Nc1cccc(-c2nnn[nH]2)c1)Nc1ccc(Cl)c(Cl)c1 | – | – | – | 80.3 | – | –
12 | O=C(Nc1cccc(C(=O)O)c1)Nc1ccc(Cl)c(Cl)c1 | 241 | 10.1 | 11.2 | 48.7 | – | 0.48
